In patent US10471050B2, “2-OXO-1,2-dihydropyridine-3,5-dicarboxamide compounds as bromodomain inhibitors” (GlaxoSmithKline Intellectual Property (No. 2) Limited, priority 2015, dated 2019):
Like-named read-outs stand apart in the source and are kept apart here.

Key:
[1] = biological target: T1, BRD4 BD2 (Homo sapiens, UniProt O60885, Y97A); assay: BRD4 BD2 TR-FRET competition assay; assay type: binding
T1 construct: BRD4 (1-477) (Y97A) and (Y390A); made in house; host or cells: E. coli (pET15b vector)
Method: Bromodomain binding was assessed utilising a time resolved fluorescent resonance energy transfer (TR-FRET) competition assay. To enable this approach a known, high affinity, pan-BET interacting small molecule was labelled with Alexa Fluor® 647, which is a far-red-fluorescent dye (Reference Compound X). Reference Compound X acts as a reporter of bromodomain binding and is the acceptor fluorophore component of the TR-FRET pair. Europium chelate, conjugated to an anti-6*His antibody, was utilised as the donor fluorophore in the TR-FRET pair. […] A TR-FRET signal is generated when the donor and acceptor fluorophores are in close proximity, between 20-80 Å, which is enabled in this assay by binding of Reference Compound X to the bromodomain protein.
In order to generate a TR-FRET signal, donor fluorophore is excited by a laser at λ337 nm, which subsequently leads to emission at λ618 nm. If the acceptor fluorophore is in close proximity then energy transfer can occur, which leads to emission of Alexa Fluor® 647 at λ665 nm. In the presence of competitor compound, Reference Compound X can be displaced from binding to the bromodomain. If displacement occurs, the acceptor fluorophore is no longer in proximity to the donor fluorophore, which prevents fluorescent energy transfer and, subsequently, a loss of Alexa Fluor® 647 emission at λ665 nm.
(§1) The competition of the compounds of formula (I) with Reference Compound X for binding to the BET family (BRD2, BRD3, BRD4 and BRDT) was assessed using protein truncates spanning both bromodomain 1 (BD1) and bromodomain 2 (BD2). In order to monitor differential binding to either BD1 or BD2, single residue mutations of key tyrosines to alanine were made in the acetyl lysine binding pockets. To validate this approach, a double residue mutant tandem domain protein was produced for each of the BET family members. Utilising a Fluorescence Polarisation approach, binding affinities for each of the single and double mutants for Reference Compound X were determined.
Final purification was completed by Superdex 200 prep grade size exclusion column. Purified protein was stored at −80° C. in 20 mM HEPES pH 7.5 and 100 mM NaCl.
All assay components were dissolved in an assay buffer composing of 50 mM HEPES pH7.4, 50 mM NaCl, 5% Glycerol, 1 mM DTT and 1 mM CHAPS. Reference Compound X was diluted, in assay buffer containing 20 nM single mutant, tandem bromodomain protein, to a concentration equivalent to 2*Kd for this bromodomain. The solution containing bromodomain and Reference Compound X was added to dose response dilutions of test compound or DMSO vehicle (a maximum of 0.5% DMSO is used in this assay) in Greiner 384 well black low volume microtitre plates and subsequently incubated for 30 minutes at room temperature. An equal volume of 3 nM of anti-6*His Europium chelate was added to all wells, followed by a further 30 minute incubation at room temperature. TR-FRET was detected using a Perkin Elmer Multimode plate reader, by exciting the donor fluorophore at λ337 nm and subsequently, after a delay of 50 μsecs, measuring emission of the donor and acceptor fluorophores at λ615 nm and λ665 nm, respectively. In order to control these assays, 16 replicates each of uninhibited (DMSO vehicle) and inhibited (10*IC50 concentrations of Example 11 of WO 2011/054846A1) TR-FRET assays were included on every microtitre plate.
cA four parameter curve fit of the following form was then applied: y=a+((b−a)/(1+(10^x/10^c)^d)
Where ‘a’ is the minimum, ‘b’ is the Hill slope, ‘c’ is the pIC50 and ‘d’ is the maximum.

[2] = tested on: BET family (BRD2, BRD3, BRD4 and BRDT) tandem bromodomain proteins, Tyr to Ala mutants; assay: Fluorescence Polarisation binding of Reference Compound X to single and double mutant tandem BET proteins; design: species or system Human
Method: as §1, with “determined. […] The affinities of the single mutated bromdomain tandem proteins for Reference Compound X were equi-potent with the corresponding non-mutated BET protein. […] In the TR-FRET competition assay, Reference Compound X is used at a concentration that is equivalent to the Kd for the non-mutated bromodomain, which ensures that no binding at the mutated bromodomain is detected.” for “determined.”
Protein production: Recombinant Human Bromodomains [(BRD2 (1-473) (Y113A) and (Y386A), BRD3 (1-435) (Y73A) and (Y348A) BRD4 (1-477) (Y97A) and (Y390A) and BRDT (1-397) (Y66A) and (Y309A)] were expressed in E. coli cells (in pET15b vector for BRD2/3/4 and in pET28a vector for BRDT) with a 6-His tag at the N-terminal. The His-tagged Bromodomain pellet was resuspended in 50 mM HEPES (pH7.5), 300 mM NaCl, 10 mM imidazole & 1 μl/ml protease inhibitor cocktail and extracted from the E. coli cells using sonication and purified using a nickel sepharose high performance column, the proteins were washed and then eluted with a linear gradient of 0-500 mM imidazole with buffer 50 mM HEPES (pH7.5), 150 mM NaCl, 500 mM imidazole, over 20 column volumes. Final purification was completed by Superdex 200 prep grade size exclusion column. Purified protein was stored at −80° C. in 20 mM HEPES pH 7.5 and 100 mM NaCl. Protein identity was confirmed by peptide mass fingerprinting and predicted molecular weight confirmed by mass spectrometry.

[3] = average of N recorded values, read-out: BRD4 BD2 IC50 (average value) (converted)
[4] = single mutant tandem BRD4, read-out: pIC50 in the BRD4 BD2 assay (converted)

Row | Compound | IC50 [1, 4] | other results
1 | CNC(=O)CCNC(=O)c1cc(C(=O)NC)c(=O)n(Cc2ccccc2)c1 [Example 35, 1-Benzyl-N^3-methyl-N^5-(3-(methylamino)-3-oxopropyl)-2-oxo-1,2-dihydropyridine-3,5-dicarboxamide] | 100 to 1000 nM | –
2 | CNC(=O)c1cc(C(=O)NCCc2cn[nH]c2)cn(Cc2cccc(OC)c2)c1=O [Example 17, N^5-(2-(1H-pyrazol-4-yl)ethyl)-1-(3-methoxybenzyl)-N^3-methyl-2-oxo-1,2-dihydropyridine-3,5-dicarboxamide] | 100 to 1000 nM | –
3 | CNC(=O)c1cc(C(=O)NCCc2c[nH]cn2)cn(Cc2cccc(OCCO)c2)c1=O [Example 19, N^5-(2-(1H-imidazol-4-yl)ethyl)-1-(3-(2-hydroxyethoxy)benzyl)-N^3-methyl-2-oxo-1,2-dihydropyridine-3,5-dicarboxamide] | 100 to 1000 nM | –
4 | CCCNC(=O)c1cc(C(=O)NC)c(=O)n(Cc2ccccc2)c1 [Example 2, 1-Benzyl-N^3-methyl-2-oxo-N^5-propyl-1,2-dihydropyridine-3,5-dicarboxamide] | 100 to 1000 nM | IC50 [1, 3]: 126 nM
5 | COc1ccc2c(c1)C(c1ccc(Cl)cc1)=N[C@@H](CC(=O)NCCCCCNC(=O)CCCCCC1(C)/C(=C/C=C/C=C/C3=[N+](CCCCS(=O)(=O)O)c4ccc(S(=O)(=O)O)cc4C3(C)C)N(CCCCS(=O)(=O)[O-])c3ccc(S(=O)(=O)O)cc31)c1nnc(C)n1-2 (stereo partly shown) [Reference Compound X] | – | reduction in Kd, double mutant tandem proteins versus non mutated wild type tandem BET proteins ([2]; double residue Tyr to Ala mutant tandem protein of each BET family member): > 1000 fold; affinity of single mutated bromodomain tandem proteins versus corresponding non-mutated BET protein ([2]; single Tyr to Ala mutants): equi-potent; reduction of Kd of the interaction between the mutated bromodomain and Reference Compound X ([2]; single mutation of Tyrosine to Alanine): > 1000 fold
6 | CNC(=O)c1cc(C(=O)NCCc2cccnc2)cn(Cc2ccccc2)c1=O [Example 40, 1-Benzyl-N^3-methyl-2 oxo-N^5-(2-(pyridin-3-yl)ethyl)-1,2-dihydropyridine-3,5-dicarboxamide] | 100 to 1000 nM | –
7 | CCNC(=O)c1cc(C(=O)NC)c(=O)n(Cc2cccc(OC)c2)c1 [Example 18, N^5-ethyl-1-(3-methoxybenzyl)-N^3-methyl-2-oxo-1,2-dihydropyridine-3,5-dicarboxamide] | 100 to 1000 nM | –
8 | CNC(=O)c1cc(C(=O)NCCCOC)cn(Cc2ccccc2)c1=O [Example 42, 1-Benzyl-N^5-(3-methoxypropyl)-N^3-methyl-2-oxo-1,2-dihydropyridine-3,5-dicarboxamide] | 100 to 1000 nM | –
9 | CNC(=O)c1cc(C(=O)NCCc2ccncc2)cn(Cc2ccccc2)c1=O [Example 34, 1-Benyl-N^3-methyl-2-oxo-N^5-(2-(pyridin-4-yl)ethyl)-1,2-dihydropyridine-3,5-dicarboxamide] | 100 to 1000 nM | –
10 | CNC(=O)c1cc(C(=O)NCCc2ccn[nH]2)cn(Cc2ccccc2)c1=O [Example 50, N^5-(2-(1H-Pyrazol-5-yl)ethyl)-1-benzyl-N^3-methyl-2-oxo-1,2-dihydropyridine-3,5-dicarboxamide] | 100 to 1000 nM | –

Continued, in another order:

Row | IC50 [1, 4] | Compound | other results
11 | 100 to 1000 nM | CCNC(=O)c1cc(C(=O)NC)c(=O)n(Cc2cccc(OCCO)c2)c1 [Example 20, N^5-Ethyl-1-(3-(2-hydroxyethoxy)benzyl)-N^3-methyl-2-oxo-1,2-dihydropyridine-3,5-dicarboxamide] | IC50 [1, 3]: 251 nM
12 | 100 to 1000 nM | CNC(=O)c1cc(C(=O)NCCc2cnn(C)c2)cn(Cc2ccccc2)c1=O [Example 52, 1-Benzyl-N^3-methyl-N^5-(2-(1-methyl-1H-pyrazol-4-yl)ethyl)-2-oxo-1,2-dihydropyridine-3,5-dicarboxamide] | –
13 | 100 to 1000 nM | CNC(=O)CCCNC(=O)c1cc(C(=O)NC)c(=O)n(Cc2ccccc2)c1 [Example 5, 1-Benzyl-N^3-methyl-N^5-(4-(methylamino)-4-oxobutyl)-2-oxo-1,2-dihydropyridine-3,5-dicarboxamide] | –
14 | 1000 to 100000 nM | CNC(=O)c1cc(C(=O)NCC(C)OC)cn(Cc2ccccc2)c1=O (stereo not shown) [Example 29, 1-Benzyl-N^5-(2-methoxypropyl)-N^3-methyl-2-oxo-1,2-dihydropyridine-3,5-dicarboxamide] | –
15 | 1000 to 100000 nM | CNC(=O)c1cc(C(=O)NC)c(=O)n(Cc2cccc(C#N)c2)c1 [Example 43, 1-(3-Cyanobenzyl)-N^3,N^5-dimethyl-2-oxo-1,2-dihydropyridine-3,5-dicarboxamide] | –
16 | ≤ 100 nM | CNC(=O)c1cc(C(=O)NCCc2cn[nH]c2)cn(Cc2cccc(C)c2)c1=O [Example 13, N^5-(2-(1H-Pyrazol-4-yl)ethyl)-N^3-methyl-1-(3-methylbenzyl)-2-oxo-1,2-dihydropyridine-3,5-dicarboxamide] | IC50 [1, 3]: 100 nM
17 | 100 to 1000 nM | CNC(=O)c1cc(C(=O)NCCCN)cn(Cc2ccccc2)c1=O [Example 38, N^5-(3-Aminopropyl)-1-benzyl-N^3-methyl-2-oxo-1,2-dihydropyridine-3,5-dicarboxamide] | –
